Experimental data taken from patent US8865759B2, “Use of dithiine-tetracarboximides for controlling phytopathogenic fungi” (priority 2008, dated 2014).

Experiment: logP determination by HPLC on reversed-phase column (C 18), EEC Directive 79/831 Annex V.A8
Type: physicochemical
Conditions: reversed-phase C 18, 43° C., acidic range pH 2.7, 0.1% aqueous formic acid/acetonitrile

Row | Structure (SMILES) | log P
1 | CC(C(=O)O)n1c(=O)c2sc3c(=O)n(C(C)C(=O)O)c(=O)c3sc2c1=O (centres unmarked) [Compound 24, 2,2′-(1,3,5,7-Tetraoxo-1,3,5,7-tetrahydro-2H,6H-[1,4]dithiino[2,3-c:5,6-c]dipyrrole-2,6-diyl)dipropanoic acid] | log P = 1.76
2 | COCCn1c(=O)c2sc3c(=O)n(CCOC)c(=O)c3sc2c1=O [Compound 12, 2,6-Bis(2-methoxyethyl)-1H,5H-[1,4]dithiino[2,3-c:5,6-c]dipyrrole-1,3,5,7(2H,6H)-tetrone] | log P = 2.55
